What all share (assay): In vitro competitive activity-based protein profiling (gel-based, FP-Rh or HT-01 probe)
Common to all, as to assay type: biochemical

For one test, the target named is T1, ABHD6 (Mus musculus, UniProt Q8R2Y0).
T1 construct: Proteomes (mouse brain membrane fraction or cell lysates); from tissue; host or cells: mouse brain membrane fraction (or cell lysates, not specified)
T1 sequence (Q8R2Y0 1-336): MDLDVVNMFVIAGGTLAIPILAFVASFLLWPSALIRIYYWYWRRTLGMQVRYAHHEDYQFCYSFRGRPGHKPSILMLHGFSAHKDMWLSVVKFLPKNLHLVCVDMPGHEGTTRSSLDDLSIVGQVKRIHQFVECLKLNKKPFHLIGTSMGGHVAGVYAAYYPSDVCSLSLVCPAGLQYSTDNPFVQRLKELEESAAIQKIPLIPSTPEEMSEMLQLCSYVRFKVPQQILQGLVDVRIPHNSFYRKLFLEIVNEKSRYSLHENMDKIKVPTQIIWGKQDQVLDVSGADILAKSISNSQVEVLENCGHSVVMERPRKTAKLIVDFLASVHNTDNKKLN
Particulars: 1 μM inhibitor; gel-based competitive ABPP; read-out: % Inhibition at 1 μM, C = ABHD6. In short, it runs like this: (§1)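 Read-out: fluorescent band intensity on SDS-PAGE gels, reporting remaining serine hydrolase activity. Before that, proteome (mouse brain membranes or cell lysates, 1.0 mg/mL) saw a range of inhibitor concentrations for 30 min at 37° C, followed by 30 min probe labelling (FP-Rh or HT-01).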

For the next test, the target named is T2, FAAH (Mus musculus, UniProt O08914).
T2 construct: Proteomes (mouse brain membrane fraction or cell lysates); from tissue; host or cells: mouse brain membrane fraction (or cell lysates, not specified)
T2 sequence (O08914 1-579): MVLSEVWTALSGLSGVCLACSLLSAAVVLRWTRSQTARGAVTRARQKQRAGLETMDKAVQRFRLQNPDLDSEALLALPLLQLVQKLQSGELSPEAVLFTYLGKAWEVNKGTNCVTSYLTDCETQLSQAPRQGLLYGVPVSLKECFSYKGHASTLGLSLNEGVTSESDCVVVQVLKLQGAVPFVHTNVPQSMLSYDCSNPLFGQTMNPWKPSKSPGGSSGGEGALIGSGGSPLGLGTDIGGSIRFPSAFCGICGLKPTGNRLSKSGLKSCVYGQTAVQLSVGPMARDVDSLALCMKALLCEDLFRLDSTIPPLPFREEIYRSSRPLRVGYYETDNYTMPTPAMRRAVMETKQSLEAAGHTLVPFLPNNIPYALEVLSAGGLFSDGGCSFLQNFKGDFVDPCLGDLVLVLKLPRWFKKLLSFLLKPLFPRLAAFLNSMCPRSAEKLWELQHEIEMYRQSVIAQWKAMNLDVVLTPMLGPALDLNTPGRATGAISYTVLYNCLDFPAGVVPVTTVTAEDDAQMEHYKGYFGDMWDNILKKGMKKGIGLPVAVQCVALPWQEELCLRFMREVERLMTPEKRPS
Particulars: 1 μM inhibitor; gel-based competitive ABPP; read-out: % Inhibition at 1 μM, B = FAAH. The gist of the method: as §1

Another test deals with T3, MAGL (Mus musculus, UniProt O35678).
T3 construct: Proteomes (mouse brain membrane fraction or cell lysates); from tissue; host or cells: mouse brain membrane fraction (or cell lysates, not specified)
T3 sequence (O35678 1-303): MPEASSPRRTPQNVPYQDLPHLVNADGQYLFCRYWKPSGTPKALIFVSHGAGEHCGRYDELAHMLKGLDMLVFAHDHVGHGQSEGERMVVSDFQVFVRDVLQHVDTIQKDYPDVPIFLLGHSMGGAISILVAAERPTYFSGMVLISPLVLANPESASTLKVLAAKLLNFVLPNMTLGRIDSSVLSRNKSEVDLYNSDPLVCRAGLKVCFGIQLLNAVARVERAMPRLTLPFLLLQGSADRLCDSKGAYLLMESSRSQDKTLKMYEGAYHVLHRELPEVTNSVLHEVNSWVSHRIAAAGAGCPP
As to conditions: 1 μM inhibitor; gel-based competitive ABPP. In short, it runs like this: as §1

The next test has as its target T4, PLA2G7 (Mus musculus, UniProt Q60963).
T4 construct: Proteomes (mouse brain membrane fraction or cell lysates); from tissue; host or cells: mouse brain membrane fraction (or cell lysates, not specified)
T4 sequence (Q60963 22-440): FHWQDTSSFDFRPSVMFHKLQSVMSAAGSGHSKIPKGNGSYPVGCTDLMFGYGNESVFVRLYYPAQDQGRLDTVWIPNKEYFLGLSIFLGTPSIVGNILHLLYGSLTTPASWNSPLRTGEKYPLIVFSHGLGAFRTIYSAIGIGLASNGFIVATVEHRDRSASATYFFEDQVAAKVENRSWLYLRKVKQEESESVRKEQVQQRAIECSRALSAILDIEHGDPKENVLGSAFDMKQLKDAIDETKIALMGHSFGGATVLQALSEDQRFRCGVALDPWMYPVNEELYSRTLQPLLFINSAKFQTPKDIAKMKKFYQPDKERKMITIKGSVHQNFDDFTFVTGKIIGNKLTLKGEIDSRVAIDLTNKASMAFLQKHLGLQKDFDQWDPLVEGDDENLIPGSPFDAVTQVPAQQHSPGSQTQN
Particulars: 1 μM inhibitor; gel-based competitive ABPP; read-out: % Inhibition at 1 μM, D = PLA2G7. The gist of the method:
as §1

In the case of `Cc1cnn(C(=O)N2CCN(Cc3cccc(Oc4ccccc4)c3)CC2)c1` [Example 294, (4-Methyl-1H-pyrazol-1-yl)(4-(3-phenoxybenzyl)piperazin-1-yl)methanone], the inhibition at 1 µM on ABHD6 was > 75%; at FAAH it was > 75%; on MAGL it was > 75%; at PLA2G7, < 25%.
`N#Cc1cnn(C(=O)N2CCN(Cc3cccc(Oc4ccccc4)c3)CC2)c1` [Example 295, 1-(4-(3-Phenoxybenzyl)piperazine-1-carbonyl)-1H-pyrazole-4-carbonitrile]: the inhibition at 1 µM at ABHD6 is > 75%; on FAAH, > 75%; at MAGL it was > 75%; at PLA2G7, < 25%.
For the molecule `O=C(N1CCN(Cc2cccc(OCc3ccccc3)c2)CC1)n1cccn1` [Example 296, (4-(3-(Benzyloxy)benzyl)piperazin-1-yl)(1H-pyrazol-1-yl)methanone], the inhibition at 1 µM on ABHD6 was > 75%; at FAAH, > 75%; on MAGL, > 75%; at PLA2G7 it was < 25%.
On to `Cc1cnn(C(=O)N2CCN(Cc3cccc(OCc4ccccc4)c3)CC2)c1` [Example 297, (4-(3-(Benzyloxy)benzyl)piperazin-1-yl)(4-methyl-1H-pyrazol-1-yl)methanone], for which the inhibition at 1 µM on ABHD6 was > 75%; on FAAH it was > 75%; on MAGL it was > 75%; on PLA2G7, < 25%.
`Cc1cnn(C(=O)N2CCCN(Cc3cccc(Oc4ccccc4)c3)CC2)c1` [Example 298, (4-Methyl-1H-pyrazol-1-yl)(4-(3-phenoxybenzyl)-1,4-diazepan-1-yl)methanone]: the inhibition at 1 µM is < 25% at ABHD6, < 25% on FAAH, > 75% on MAGL and < 25% at PLA2G7.
As to `N#Cc1cnn(C(=O)N2CCCN(Cc3cccc(Oc4ccccc4)c3)CC2)c1` [Example 299, 1-(4-(3-Phenoxybenzyl)-1,4-diazepane-1-carbonyl)-1H-pyrazole-4-carbonitrile], the inhibition at 1 µM at ABHD6 was > 75%; at FAAH, > 75%; on MAGL, > 75%; at PLA2G7 it was < 25%.
With `N#Cc1cnn(C(=O)N2CCCN(Cc3cccc(OCc4ccccc4)c3)CC2)c1` [Example 300, 1-(4-(3-(Benzyloxy)benzyl)-1,4-diazepane-1-carbonyl)-1H-pyrazole-4-carbonitrile], the inhibition at 1 µM on ABHD6 was > 75%; at FAAH, > 75%; at MAGL, > 75%; on PLA2G7 it was < 25%.
For `N#Cc1cnn(C(=O)N2CCCN(Cc3ccc(Oc4ccccc4)cc3)CC2)c1` [Example 301, 1-(4-(4-Phenoxybenzyl)-1,4-diazepane-1-carbonyl)-1H-pyrazole-4-carbonitrile], the inhibition at 1 µM at ABHD6 was > 75%; on FAAH it was > 75%; at MAGL, > 75%; at PLA2G7, < 25%.
Take `Cc1cnn(C(=O)N2CCCN(Cc3ccc(OCc4ccccc4)cc3)CC2)c1` [Example 302, (4-(4-(Benzyloxy)benzyl)-1,4-diazepan-1-yl)(4-methyl-1H-pyrazol-1-yl)methanone]: the inhibition at 1 µM at ABHD6 is < 25%; at FAAH, < 25%; at MAGL, 25 to 75%; on PLA2G7, < 25%.
As to `N#Cc1cnn(C(=O)N2CCCN(Cc3ccc(OCc4ccccc4)cc3)CC2)c1` [Example 303, 1-(4-(4-(Benzyloxy)benzyl)-1,4-diazepane-1-carbonyl)-1H-pyrazole-4-carbonitrile], the inhibition at 1 µM was < 25% at ABHD6, > 75% at FAAH, > 75% on MAGL and < 25% on PLA2G7.

Values taken from US10093630B2, “Pyrazole compounds and methods of making and using same” (ABIDE THERAPEUTICS, INC., priority 2014, dated 2018).
